Test results reported in article PMC8284453 (Antimicrobial Agents and Chemotherapy, 2021).
Values after ≈ are worked out from the molar mass of the structure shown. Like-named read-outs stand apart in the source and are kept apart here.

What was measured:
[1] = tested on: Enterobacterales expressing class D oxacillinases (OXA-48/48-like); test: organism not typed; type: cell-based, E. coli, K. pneumoniae
[2] = tested on: Enterobacterales expressing class C cephalosporinases
[3] = tested on: K. pneumoniae 752286 (OXA-48); test: Broth microdilution MIC; type: cell-based; conditions: Klebsiella pneumoniae
[4] = tested on: Enterobacterales expressing class A carbapenemases (KPC); test: organism not typed; type: cell-based, K. pneumoniae, E. coli, E. cloacae, Klebsiella oxytoca
[5] = 25 isolates, BLI fixed at 4 μg/ml, AMC 2:1

Question: Nc1nc(/C(=C/CC(=O)O)C(=O)N[C@@H]2C(=O)N3C(C(=O)O)=CCS[C@H]23)cs1 [CTB, ceftibuten] was tested. Which MIC50 [1, 5] did it give?
Answer: 16 µg/mL (≈ 39 µM)

Question: And the MIC90 [1, 5]?
Answer: ≥ 64 µg/mL

Question: What about the MIC ([1]; E. coli 664507 (OXA-48)) of the same compound?
Answer: 16 µg/mL (≈ 39 µM)

Question: What about the MIC ([1]; E. coli 664516 (OXA-48)) of the same compound?
Answer: 32 µg/mL (≈ 78 µM)

Question: And the MIC ([1]; E. coli 664520 (OXA-48))?
Answer: 16 µg/mL (≈ 39 µM)

Question: What about the MIC ([1]; E. coli 664522 (OXA-48)) of the same compound?
Answer: 32 µg/mL (≈ 78 µM)

Question: What about the MIC ([1]; E. coli 664523 (OXA-48)) of the same compound?
Answer: 16 µg/mL (≈ 39 µM)

Question: What about the MIC ([1]; E. coli 664524 (OXA-48)) of the same compound?
Answer: 16 µg/mL (≈ 39 µM)

Question: And the MIC ([1]; E. coli 664525 (OXA-48))?
Answer: 32 µg/mL (≈ 78 µM)

Question: What about the MIC ([1]; E. coli 664526 (OXA-48)) of the same compound?
Answer: 16 µg/mL (≈ 39 µM)

Question: What about the MIC ([1]; E. coli 664528 (OXA-48)) of the same compound?
Answer: 16 µg/mL (≈ 39 µM)

Question: What about the MIC ([1]; E. coli 787112 (OXA-48)) of the same compound?
Answer: ≥ 64 µg/mL

Question: And the MIC ([1]; E. coli SI-422 (OXA-48))?
Answer: 0.25 µg/mL (≈ 0.609 µM)

Question: And the MIC ([1]; E. coli VER (OXA-48))?
Answer: 0.06 µg/mL (≈ 0.146 µM)

Question: And the MIC ([1]; K. pneumoniae 6299 (OXA-163))?
Answer: 8 µg/mL (≈ 19.5 µM)

Question: What about the MIC ([1]; K. pneumoniae 515746 (OXA-48), first line) of the same compound?
Answer: 16 µg/mL (≈ 39 µM)

Question: What about the MIC ([1]; K. pneumoniae 515746 (OXA-48), second line) of the same compound?
Answer: 16 µg/mL (≈ 39 µM)

Question: And the MIC ([1]; K. pneumoniae 664438 (OXA-48))?
Answer: 16 µg/mL (≈ 39 µM)

Question: And the MIC ([1]; K. pneumoniae 664439 (OXA-48))?
Answer: 16 µg/mL (≈ 39 µM)

Question: And the MIC ([1]; K. pneumoniae 664509 (OXA-48))?
Answer: ≥ 64 µg/mL

Question: What about the MIC ([1]; K. pneumoniae 664518 (OXA-48)) of the same compound?
Answer: 32 µg/mL (≈ 78 µM)

Question: And the MIC ([1]; K. pneumoniae 722870 (OXA-48))?
Answer: 8 µg/mL (≈ 19.5 µM)

Question: What about the MIC ([1]; K. pneumoniae BAH (OXA-204)) of the same compound?
Answer: ≥ 64 µg/mL

Question: And the MIC ([1]; K. pneumoniae DEL (OXA-232))?
Answer: ≥ 64 µg/mL

Question: What about the MIC ([1]; K. pneumoniae DOV (OXA-48)) of the same compound?
Answer: 8 µg/mL (≈ 19.5 µM)

Question: And the MIC ([1]; K. pneumoniae KIRK (OXA-162))?
Answer: 8 µg/mL (≈ 19.5 µM)

Question: And the MIC ([1]; K. pneumoniae SI-C17 (OXA-48))?
Answer: ≥ 64 µg/mL

Question: What about the MIC90 [2, 5] of the same compound?
Answer: ≥ 64 µg/mL

Question: And the MIC ([2]; C. freundii 134390 (AmpC, TEM-1))?
Answer: 4 µg/mL (≈ 9.75 µM)

Question: And the MIC ([2]; E. aerogenes 110099 (AmpC, SHV-12))?
Answer: 32 µg/mL (≈ 78 µM)

Question: What about the MIC ([2]; E. aerogenes 111707 (AmpC, TEM-1)) of the same compound?
Answer: 2 µg/mL (≈ 4.87 µM)

Question: What about the MIC ([2]; E. aerogenes 111902 (AmpC, TEM-1)) of the same compound?
Answer: ≥ 64 µg/mL

Question: And the MIC ([2]; E. coli 128 (AmpC, SHV-12, TEM-1, Toho-2))?
Answer: 2 µg/mL (≈ 4.87 µM)

Question: And the MIC ([2]; E. coli 3102 (AmpC, CTX-M-15, TEM-1))?
Answer: 32 µg/mL (≈ 78 µM)

Question: And the MIC ([2]; E. coli CH1 (AmpC, CTX-M-15, SHV-1, SHV-5, TEM-1))?
Answer: ≥ 64 µg/mL

Question: And the MIC ([2]; E. coli EC469 (AmpC, SHV-12, TEM-1))?
Answer: 2 µg/mL (≈ 4.87 µM)

Question: What about the MIC ([2]; E. coli J53 (AmpC, SHV-5, TEM-1)) of the same compound?
Answer: 8 µg/mL (≈ 19.5 µM)

Question: And the MIC ([2]; E. coli SI-P026TC (CMY-2, TEM-1))?
Answer: ≥ 64 µg/mL

Question: What about the MIC ([2]; E. coli SI-PO26 (AmpC, CMY-2, TEM-1)) of the same compound?
Answer: ≥ 64 µg/mL

Question: What about the MIC ([2]; K. pneumoniae 129032 (MOX-2, SHV-12, TEM-1)) of the same compound?
Answer: 16 µg/mL (≈ 39 µM)

Question: And the MIC ([2]; K. pneumoniae 178279 (AmpC, SHV-12, TEM-1))?
Answer: 8 µg/mL (≈ 19.5 µM)

Question: And the MIC ([2]; K. pneumoniae 212027 (AmpC, FOX-5, TEM-1))?
Answer: 16 µg/mL (≈ 39 µM)

Question: And the MIC ([2]; K. pneumoniae 217917 (CMY-2, TEM-1))?
Answer: 8 µg/mL (≈ 19.5 µM)

Question: What about the MIC ([2]; K. pneumoniae 301313 (AmpC, SHV-12, TEM-1)) of the same compound?
Answer: ≥ 64 µg/mL

Question: And the MIC ([2]; K. pneumoniae 398845 (CMY-2, SHV-12, TEM-1))?
Answer: 16 µg/mL (≈ 39 µM)

Question: What about the MIC ([2]; K. pneumoniae SI-F100 (CMY-2, SHV-5, TEM-1)) of the same compound?
Answer: 2 µg/mL (≈ 4.87 µM)

Question: What about the MIC ([2]; P. mirabilis SI-F014 (AmpC, TEM-72)) of the same compound?
Answer: ≥ 64 µg/mL

Question: And the MIC ([2]; S. marcescens 132253 (AmpC, CTX-M-3, OXA-1, SHV-12, TEM-1))?
Answer: ≥ 64 µg/mL

Question: What about the MIC ([2]; S. marcescens 134434 (AmpC, SHV-12, TEM-1)) of the same compound?
Answer: 32 µg/mL (≈ 78 µM)

Question: And the MIC ([2]; S. marcescens 142397 (AmpC, SHV-7, TEM-1))?
Answer: ≥ 64 µg/mL

Question: And the MIC ([2]; S. marcescens 156212 (AmpC, SHV-12, TEM-1))?
Answer: 8 µg/mL (≈ 19.5 µM)

Question: What about the MIC ([2]; S. marcescens 192478 (AmpC, SHV-12, TEM-1)) of the same compound?
Answer: 8 µg/mL (≈ 19.5 µM)

Question: What about the MIC ([2]; S. marcescens 218068 (AmpC, SHV-7, TEM-1)) of the same compound?
Answer: 32 µg/mL (≈ 78 µM)

Question: What about the MIC [3] of the same compound?
Answer: 128 µg/mL (≈ 312 µM)

Question: And the MIC50 [4]?
Answer: 16 µg/mL (≈ 39 µM)

Question: What about the MIC90 [4] of the same compound?
Answer: ≥ 64 µg/mL
